In brackets after ≈: the same amount, converted by molar mass. Where a name gives a salt, the structure may show the parent alone.
Assays:
B. Fragilis NCTC 10581 = experiment: MIC/MBC anti-anaerobic screen, strain A; assay type: cell-based, Bacteroides fragilis; conditions: 37° C.; for MIC: Bacteroides fragilis, NCTC10581, 48 h, read-out: Minimum Inhibitory Concentration (MIC)
Experimental: (§1) The screening panel utilized in this Example consisted of 5 strains of Bacteroides fragilis. All assays were carried out in 96 well microtitre plates. If an isolate was obtained from either a culture collection or clinical source, the isolate was immediately inoculated into Wilkins-Chalgren broth (Oxoid) and incubated at 37° C. in an anaerobic chamber in an atmosphere of 85% nitrogen, 10% carbon dioxide, and 5% hydrogen for 48 hours. At the end of this time, the viable count was about 10^12 organisms/ml broth. A 1 ml aliquot of each culture was placed in an ampoule and quick frozen in an acetone-dry-ice mixture and stored in liquid nitrogen. When an inoculum was utilized in an assay, one of the ampoules was thawed and diluted with fresh broth to yield a suspension having a count of 5×10^5 organisms/ml. 100 ul of the suspension was inoculated into each well of the microtitre plate. 2 mg of the test compound was dissolved on 0.2 ml of a suitable solvent such as dimethylsulphoxide, polyethylene glycol 200 or methanol. […] After addition of the test solution, the final inoculum level is 10^5 cells/ml. The plates were incubated for 48 hours at 37° C. in the anaerobic chamber. The Minimum Inhibitory Concentration (MIC) was read visually. The MIC is defined as the lowest concentration at which there is no detectable growth. The Minimum Bactericidal Concentration (MBC) was determined by taking a 50 ul aliquot from each well and placing it in fresh medium.

B. Fragilis NCTC 9343 = experiment: MIC/MBC anti-anaerobic screen, strain B; assay type: cell-based; conditions: Bacteroides fragilis, NCTC9343, 48 h, 37° C., read-out: Minimum Inhibitory Concentration (MIC)
Experimental: as §1

B. Fragilis WS-1 = experiment: MIC/MBC anti-anaerobic screen, strain E; assay type: cell-based; conditions: Bacteroides fragilis, 48 h; for MIC: 37° C., anaerobic, read-out: Minimum Inhibitory Concentration (MIC)
Experimental: as §1

B. Fragilis ATCC 11295 = experiment: MIC/MBC anti-anaerobic screen, strain D; assay type: cell-based; conditions: Bacteroides fragilis, ATCC11295, 48 h, 37° C., read-out: Minimum Inhibitory Concentration (MIC)
Experimental: as §1

B. Fragilis NCTC 9344 = experiment: MIC/MBC anti-anaerobic screen, strain C; assay type: cell-based; conditions: Bacteroides fragilis, NCTC9344, 48 h, 37° C., read-out: Minimum Inhibitory Concentration (MIC)
Experimental: as §1

Row | Compound | MIC (B. Fragilis NCTC 10581) [µg/mL] | MIC (B. Fragilis WS-1) [µg/mL] | MIC (B. Fragilis ATCC 11295) [µg/mL] | MIC (B. Fragilis NCTC 9344) [µg/mL] | further results
1 | Clc1ccccc1N1CCN=C1C(Cn1ccnc1)c1ccccc1 (centres unmarked) [Example 1, 1-(2-Chlorophenyl)-4,5-dihydro-2[2-(imidazol-1-yl)-1-phenylethyl)imidazole] | 3.1 (≈ 8.84 µM) | – | – | – | –
2 | Brc1ccc(N2CCN=C2C(Cn2ccnc2)c2ccccc2)c(Br)c1 (centres unmarked) [Example 2, 1-(2,4-Dibromophenyl)-4,5-dihydro-2-[2-(imidazol-1-yl)-1-phenylethyl]imidazole dihydrochloride] | 0.8 | 0.8 | – | – | MIC (B. Fragilis NCTC 9343): 3.1 µg/mL
3 | Clc1ccc(N2CCN=C2C(Cn2ccnc2)c2ccccc2)c(Cl)c1 (centres unmarked) [Example 3, 1-(2,4-Dichlorophenyl)-4,5-dihydro-2-[2-(imidazol-1-yl)-1-phenylethyl]imidazole hydrochloride] | 0.8 | – | 0.8 | 0.8 | MBC (B. Fragilis WS-1; 99.9% reduction in viable count, read-out: Minimum Bactericidal Concentration (MBC)): 3.1 µg/mL
4 | Clc1ccc(CN2CCN=C2C(Cn2ccnc2)c2ccccc2)c(Cl)c1 (centres unmarked) [Example 15, 1-(2,4-Dichlorophenylmethyl)-4,5-dihydro-2-[2-(imidazol-1-yl)-1-phenylethyl]imidazole] | 3.1 (≈ 7.76 µM) | – | 3.1 (≈ 7.76 µM) | 3.1 (≈ 7.76 µM) | MIC (B. Fragilis NCTC 9343): 3.1 µg/mL (≈ 7.76 µM)
5 | Clc1ccc(CN2CCN=C2C(Cn2cccn2)c2ccccc2)c(Cl)c1 (centres unmarked) [Example 16, 1-(2,4-Dichlorophenylmethyl)-4,5-dihydro-2-[1-phenyl-2-(pyrazol-1-yl)ethyl]imidazole dihydrochloride] | 2.5 | – | – | 3.1 | –
6 | CCCCCCCCN1CCN=C1C(Cn1ccnc1)c1ccccc1 (centres unmarked) [Example 19, 4,5-Dihydro-2-[2-(imidazol-1-yl)-1-phenylethyl]-1-n-octylimidazole dihydrochloride] | – | – | – | – | MIC (B. Fragilis NCTC 9343): 3.1 µg/mL
7 | Cc1nccn1CC(C1=NCCN1c1ccc(Cl)cc1Cl)c1ccccc1 (centres unmarked) [Example 21, 1-(2,4-Dichlorophenyl)-4,5-dihydro-2-[2-(2-methylimidazol-1-yl)-1-phenylethyl]imidazole dihydrochloride] | – | 0.8 | 3.1 | 0.8 | –
8 | CSc1nccn1CC(C1=NCCN1c1ccc(Cl)cc1Cl)c1ccccc1 (centres unmarked) [Example 22, 1-(2,4-Dichlorophenyl)-4,5-dihydro-2-[1-phenyl-2-(2-thiomethylimidazol-1-yl)ethyl]imidazole dihydrochloride] | – | 3.1 | 3.1 | 3.1 | –
9 | CC1=NCCN1CC(C1=NCCN1c1ccc(Cl)cc1Cl)c1ccccc1 (centres unmarked) [Example 23, 1-(2,4-Dichlorophenyl)-4,5-dihydro-2-[2-(4,5-dihydro-2-methylimidazol-1-yl)-1-phenylethyl]imidazole dihydrochloride] | – | 0.8 | – | – | –
10 | CCCCCCCCCCN1CCN=C1C(Cn1ccnc1)c1ccccc1.Cl.Cl (centres unmarked) [Example 26, 1-n-Decyl-4,5-dihydro-2-[2-(imidazol-1-yl)-1-phenylethyl]imidazole dihydrochloride] | – | 3.1 | 3.1 | 3.1 | –
11 | Cc1ncc([N+](=O)[O-])n1CCO [Metronidazole, reference compound] | – | – | – | – | Minimum Inhibitory Concentration (MIC) (B. Fragilis NCTC 10581; 48 hours): 0.8 µg/mL

— patent US4732989A, “Substituted alkyl imidazole derivatives” (G. D. Searle & Co., priority 1986, dated 1988)
